From patent US20050096360A1, “Inhibitors of semicarbazide-sensitive amine oxidase (SSAO) and VAP-1 mediated adhesion useful for treatment of diseases” (priority 2003, published 2005)
Counter-ions that a name gives are not always drawn. Like-named read-outs stand apart in the source and are kept apart here.

Tests used:
[1] = in vivo
recombinant human MAO-B = target: T1, recombinant human MAO-B (Homo sapiens, UniProt P27338); experiment: Inhibition of MAO-B activity, colorimetric; type: biochemical; details: for Specificity for SSAO vs. MAO-B: ratio IC50 MAO-B to IC50 SSAO
T1 construct: purchased BD Biosciences (MA, USA)
T1 sequence (P27338 1-520): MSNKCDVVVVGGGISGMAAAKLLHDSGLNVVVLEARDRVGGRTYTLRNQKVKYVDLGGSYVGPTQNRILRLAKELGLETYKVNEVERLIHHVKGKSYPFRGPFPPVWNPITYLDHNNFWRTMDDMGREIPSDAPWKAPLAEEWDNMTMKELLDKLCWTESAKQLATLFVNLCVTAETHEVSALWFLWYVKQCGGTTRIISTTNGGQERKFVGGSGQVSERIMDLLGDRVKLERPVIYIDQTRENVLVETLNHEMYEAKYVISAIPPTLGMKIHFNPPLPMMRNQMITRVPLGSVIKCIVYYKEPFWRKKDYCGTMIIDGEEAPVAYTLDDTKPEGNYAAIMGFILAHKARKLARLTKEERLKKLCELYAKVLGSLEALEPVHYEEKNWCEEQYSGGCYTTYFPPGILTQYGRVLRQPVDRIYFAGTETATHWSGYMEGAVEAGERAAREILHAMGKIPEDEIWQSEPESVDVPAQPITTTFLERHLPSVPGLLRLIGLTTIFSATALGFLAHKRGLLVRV
Protocol: (§1) The specificity of the different SSAO inhibitors was tested by determining their ability to inhibit MAO-A and MAO-B activities in vitro. Recombinant human MAO-A and human MAO-B enzymes were obtained from BD Biosciences (MA, USA). […] A pre-determined amount of inhibitor diluted in 0.2 M potassium phosphate buffer, pH 7.6, was added to each well, if required. […] Controls lacked inhibitor. The following agents were then added to a final reaction volume of 200 μl in 0.2 M potassium phosphate buffer, pH 7.6: 0.04 mg/ml of MAO-A or 0.07 mg/ml MAO-B enzyme, 15 μl of 10 mM tyramine substrate (for MAO-A), or 15 μl 100 mM benzylamine substrate (for MAO-B), and 50 μl of freshly made chromogenic solution (as above). The plates were incubated for 60 min at 37° C. The increase in absorbance, reflecting MAO activity, was measured at 490 nm using microplate spectrophotometer (Power Wave 40, Bio-Tek Inst.). Inhibition was presented as percent inhibition compared to control after correcting for background absorbance and IC50 values calculated using GraphPad Prism software.

recombinant human MAO-A = target: T2, recombinant human MAO-A (Homo sapiens, UniProt P21397); experiment: Inhibition of MAO-A activity, colorimetric; type: biochemical; details: for Specificity for SSAO vs. MAO-A: ratio IC50 MAO-A to IC50 SSAO
T2 construct: purchased BD Biosciences (MA, USA)
T2 sequence (P21397 1-527): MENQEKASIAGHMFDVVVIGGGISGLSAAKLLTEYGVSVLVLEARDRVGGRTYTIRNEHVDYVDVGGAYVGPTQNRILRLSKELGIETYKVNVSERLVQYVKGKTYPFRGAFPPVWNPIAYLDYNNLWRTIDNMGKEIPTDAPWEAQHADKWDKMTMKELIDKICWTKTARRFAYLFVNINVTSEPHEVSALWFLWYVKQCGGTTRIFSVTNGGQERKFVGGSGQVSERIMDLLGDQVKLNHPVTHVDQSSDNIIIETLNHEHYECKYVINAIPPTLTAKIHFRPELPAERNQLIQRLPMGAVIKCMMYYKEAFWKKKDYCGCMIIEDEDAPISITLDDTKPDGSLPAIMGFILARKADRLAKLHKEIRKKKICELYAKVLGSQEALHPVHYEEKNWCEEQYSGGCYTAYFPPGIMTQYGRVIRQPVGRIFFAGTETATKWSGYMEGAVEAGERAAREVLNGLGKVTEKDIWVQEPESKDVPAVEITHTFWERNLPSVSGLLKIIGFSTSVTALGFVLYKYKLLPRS
Protocol: as §1

[2] = tyramine substrate, no pre-incubation, read-out: MAO-A Inhibitory Activity IC50

SMILES: Cl.NNC/C(=C/F)c1ccccc1 [Example 10, (E)-1-fluoro-2-phenyl-3-hydrazinopropene Hydrochloride]
- bioavailability after intravenous and intraperitoneal administration [1]: readily bioavailable
- IC50 (recombinant human MAO-B): 0.65 µM
- Specificity for SSAO vs. MAO-B (recombinant human MAO-B): 10
- Specificity for SSAO vs. MAO-A (recombinant human MAO-A): 43
- IC50 (recombinant human MAO-A; [2]): 2.8 µM

SMILES: C=C(CNN)c1ccc(F)cc1.Cl [Example 8, N-[2-(4′-fluorophenyl)-allyl]-hydrazine Hydrochloride]
- bioavailability after intravenous and intraperitoneal administration [1]: readily bioavailable
- IC50 (recombinant human MAO-B): 81 µM
- Specificity for SSAO vs. MAO-B (recombinant human MAO-B): 2,500
- Specificity for SSAO vs. MAO-A (recombinant human MAO-A): 69
- IC50 (recombinant human MAO-A; [2]): 2.2 µM

SMILES: C=C(CNN)c1ccccc1 [Example 2, Hydrochloride]
- bioavailability after intravenous and intraperitoneal administration [1]: readily bioavailable
- IC50 (recombinant human MAO-B): 100 µM
- Specificity for SSAO vs. MAO-B (recombinant human MAO-B): 2,900
- IC50 (recombinant human MAO-A): 225 µM
- Specificity for SSAO vs. MAO-A (recombinant human MAO-A): 6,400
